Here are results for six molecules from patent US20240208992A1, “MACROCYCLES AS CFTR MODULATORS” (Idorsia Pharmaceuticals Ltd, priority 2021, published 2024).

This experiment has as its target human F508del-CFTR (Homo sapiens, UniProt P13569, DEL508-508). The experiment in a line: F508del-CFTR cell surface expression (corrector activity), DiscoveRx ß-galactosidase complementation chemiluminescence assay in recombinant U2OS cell line.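 As to all read-outs here: U2OS cells co-expressing ProLink-tagged F508del-CFTR and a membrane-anchored enzyme acceptor, where more surface CFTR restores β-galactosidase activity measured by chemiluminescence.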 To be noted: for EC50: EC50, F508del-CFTR cell surface expression, U2OS cells, 16h compound incubation, geomean values; for Emax: U2OS, in relation to Emax of corrector lumacaftor (=100%), arithmetic mean values.

Each structure is given as a SMILES string.

Sequence of human F508del-CFTR (P13569 with tags, fused parts or gaps DEL508-508): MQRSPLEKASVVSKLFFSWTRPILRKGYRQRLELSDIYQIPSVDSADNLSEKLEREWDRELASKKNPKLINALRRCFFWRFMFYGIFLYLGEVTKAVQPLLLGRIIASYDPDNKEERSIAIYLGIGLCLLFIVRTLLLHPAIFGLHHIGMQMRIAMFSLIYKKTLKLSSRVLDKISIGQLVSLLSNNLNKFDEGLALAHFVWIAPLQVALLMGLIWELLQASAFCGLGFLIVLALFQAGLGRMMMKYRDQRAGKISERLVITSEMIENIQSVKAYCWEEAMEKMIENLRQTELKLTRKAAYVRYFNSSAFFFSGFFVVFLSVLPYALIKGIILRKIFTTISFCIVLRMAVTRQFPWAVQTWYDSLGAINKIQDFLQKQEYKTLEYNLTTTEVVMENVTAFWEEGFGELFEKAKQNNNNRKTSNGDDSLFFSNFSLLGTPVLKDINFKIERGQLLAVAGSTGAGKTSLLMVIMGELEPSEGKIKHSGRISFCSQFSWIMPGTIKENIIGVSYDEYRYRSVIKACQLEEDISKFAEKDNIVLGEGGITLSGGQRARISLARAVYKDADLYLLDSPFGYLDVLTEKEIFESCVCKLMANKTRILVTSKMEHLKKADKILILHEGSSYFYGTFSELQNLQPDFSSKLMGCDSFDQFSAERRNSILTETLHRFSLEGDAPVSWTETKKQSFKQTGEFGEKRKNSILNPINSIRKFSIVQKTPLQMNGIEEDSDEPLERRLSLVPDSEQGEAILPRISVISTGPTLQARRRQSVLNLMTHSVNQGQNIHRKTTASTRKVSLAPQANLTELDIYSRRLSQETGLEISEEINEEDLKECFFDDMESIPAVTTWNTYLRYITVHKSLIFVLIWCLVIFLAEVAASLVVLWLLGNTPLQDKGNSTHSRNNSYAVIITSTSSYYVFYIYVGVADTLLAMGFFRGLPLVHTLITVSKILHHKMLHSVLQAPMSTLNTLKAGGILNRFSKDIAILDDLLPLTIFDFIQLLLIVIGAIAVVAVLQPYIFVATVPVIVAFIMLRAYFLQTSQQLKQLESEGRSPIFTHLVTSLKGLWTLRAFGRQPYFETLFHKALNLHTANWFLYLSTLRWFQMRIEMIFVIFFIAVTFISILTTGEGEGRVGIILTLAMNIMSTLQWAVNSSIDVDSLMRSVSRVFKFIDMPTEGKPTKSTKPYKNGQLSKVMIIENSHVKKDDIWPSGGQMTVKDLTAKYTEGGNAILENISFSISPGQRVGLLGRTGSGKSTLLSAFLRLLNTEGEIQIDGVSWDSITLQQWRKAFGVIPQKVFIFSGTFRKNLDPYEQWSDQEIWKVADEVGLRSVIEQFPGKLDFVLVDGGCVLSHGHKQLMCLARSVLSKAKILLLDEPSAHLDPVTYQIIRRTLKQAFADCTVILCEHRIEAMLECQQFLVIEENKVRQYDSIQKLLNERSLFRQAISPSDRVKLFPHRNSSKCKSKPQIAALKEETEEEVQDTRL

The EC50 is the concentration needed to bring the measured effect to its halfway point. A word on the Emax: it is the size of the effect at its maximum, as opposed to the concentration needed. Turning to `CC(C)C[C@H]1C(=O)N2CCCC[C@@H]2C(=O)N[C@H](Cc2ccccc2)COc2cnc3c(F)cccc3c2C(=O)N[C@H](C(=O)NCCc2nc(C3CC3)no2)CC(=O)N1C` [Example 501, (9S,13S,19aR,22R)-22-benzyl-N-(2-(3-cyclopropyl-1,2,4-oxadiazol-5-yl)ethyl)-3-fluoro-13-isobutyl-12-methyl-7,11,14,20-tetraoxo-7,8,9,10,11,12,13,14,17,18,19,19a,20,21,22,23-hexadecahydro-16H-pyrido[2′,11:6,7][1]oxa[4,7,10,14]tetraazacycloheptadecino[17,16-c]quinoline-9-carboxamide], the EC50 was determined as 198 nM and the Emax amounted to 308%.

Turning to `CC(C)C[C@H]1C(=O)N(C)C2(CC2)C(=O)N[C@H](Cc2ccccc2)COc2cnc3ccccc3c2C(=O)N[C@H](C(=O)NCCc2cccc(-c3ncccn3)c2)CC(=O)N1C` [Example 502, (3′S,7′S,13′R)-13′-benzyl-7′-isobutyl-6′,9′-dimethyl-1′,5′,8′,11′-tetraoxo-N-(3-(pyrimidin-2-yl)phenethyl)-2′,3′,4′,5′,6′,7′,8′,9′,11′,12′,13′,14′-dodecahydro-1′H-spiro[cyclopropane-1,10′-[1]oxa[4,7,10,14]tetraazacycloheptadecino[17,16-c]quinoline]-3′-carboxamide], the EC50 amounted to 752 nM and the Emax turned out to be 295%.

As to `COc1cccc(CCNC(=O)[C@@H]2CC(=O)N(C)[C@@H](CC(C)C)C(=O)N(C)C(C)(C)C(=O)N[C@H](Cc3ccccc3)COc3cnc4ccccc4c3C(=O)N2)c1` [Example 503, (3S,7S,13R)-13-benzyl-7-isobutyl-N-(3-methoxyphenethyl)-6,9,10,10-tetramethyl-1,5,8,11-tetraoxo-1,2,3,4,5,6,7,8,9,10,11,12,13,14-tetradecahydro-[1]oxa[4,7,10,14]tetraazacycloheptadecino[17,16-c]quinoline-3-carboxamide], the EC50 was 772 nM and the maximal effect (Emax) was 137%.

As for `CC(C)C[C@H]1C(=O)N2CCCC[C@@H]2C(=O)N[C@H](Cc2ccccc2)COc2ccc3ncccc3c2C(=O)N[C@H](C(=O)NCCc2cc(C3CC3)on2)CC(=O)N1C` [Example 504, (9S,13S,19aR,22R)-22-benzyl-N-(2-(5-cyclopropylisoxazol-3-yl)ethyl)-13-isobutyl-12-methyl-7,11,14,20-tetraoxo-7,8,9,10,11,12,13,14,17,18,19,19a,20,21,22,23-hexadecahydro-16H-pyrido[2′,1′:6,7][1]oxa[4,7,10,14]tetraazacycloheptadecino[16,17-f]quinoline-9-carboxamide], the EC50 was 149 nM and the maximum response (Emax) was 298%.

Take `CC(C)C[C@H]1C(=O)N2CCCC[C@@H]2C(=O)N[C@H](Cc2ccccc2)COc2ccc3ncccc3c2C(=O)N[C@H](C(=O)NCCc2nc(C3CC3)no2)CC(=O)N1C` [Example 505, (9S,13S,19aR,22R)-22-benzyl-N-(2-(3-cyclopropyl-1,2,4-oxadiazol-5-yl)ethyl)-13-isobutyl-12-methyl-7,11,14,20-tetraoxo-7,8,9,10,11,12,13,14,17,18,19,19a,20,21,22,23-hexadecahydro-16H-pyrido[2′,1′:6,7][1]oxa[4,7,10,14]tetraazacycloheptadecino[16,17-f]quinoline-9-carboxamide]: the EC50 is 229 nM and the Emax was 330%.

As to `CCN1C(=O)C[C@@H](C(=O)NCCc2cc(C)no2)NC(=O)c2c(cnc3ccccc23)OC[C@@H](Cc2ccccc2)NC(=O)[C@H]2CCCCN2C(=O)[C@@H]1CC(C)C` [Example 506, (9S,13S,19aR,22R)-22-benzyl-12-ethyl-13-isobutyl-N-(2-(3-methylisoxazol-5-yl)ethyl)-7,11,14,20-tetraoxo-7,8,9,10,11,12,13,14,17,18,19,19a,20,21,22,23-hexadecahydro-16H-pyrido[2′,1′:6,7][1]oxa[4,7,10,14]tetraazacycloheptadecino[17,16-c]quinoline-9-carboxamide], the EC50 was determined as 318 nM and the Emax worked out at 211%.
